From ChEMBL document CHEMBL5046279, “Discovery of a Partial Glucokinase Activator Clinical Candidate: Diethyl ((3-(3-((5-(Azetidine-1-carbonyl)pyrazin-2-yl)oxy)-5-isopropoxybenzamido)-1H-pyrazol-1-yl)methyl)phosphonate (BMS-820132)” (J Med Chem, 2022)
Values after ≈ are worked out from the molar mass of the structure shown.

Key:
[1] = target: Voltage-gated inwardly rectifying potassium channel KCNH2 (Homo sapiens, UniProt Q12809); assay: Inhibition of hERG by patch clamp method; format: toxicity
[2] = Microsomal stability in human liver microsomes assessed as parent compound remaining at 0.5 uM measured after 10 mins in presence of NADPH; format: ADME, Microsome; settings: read-out: Stability
[3] = Aqueous solubility of the compound at pH 6.5 using amorphous form of sample; format: physicochemical; settings: aqueous solution
[4] = target: T1, Hexokinase-4 (Homo sapiens, UniProt P35557); assay: Activation of recombinant full length human liver glucokinase expressed in Escherichia coli incubated for 10 mins by plate reader analysis
T1 sequence (P35557 whole entry): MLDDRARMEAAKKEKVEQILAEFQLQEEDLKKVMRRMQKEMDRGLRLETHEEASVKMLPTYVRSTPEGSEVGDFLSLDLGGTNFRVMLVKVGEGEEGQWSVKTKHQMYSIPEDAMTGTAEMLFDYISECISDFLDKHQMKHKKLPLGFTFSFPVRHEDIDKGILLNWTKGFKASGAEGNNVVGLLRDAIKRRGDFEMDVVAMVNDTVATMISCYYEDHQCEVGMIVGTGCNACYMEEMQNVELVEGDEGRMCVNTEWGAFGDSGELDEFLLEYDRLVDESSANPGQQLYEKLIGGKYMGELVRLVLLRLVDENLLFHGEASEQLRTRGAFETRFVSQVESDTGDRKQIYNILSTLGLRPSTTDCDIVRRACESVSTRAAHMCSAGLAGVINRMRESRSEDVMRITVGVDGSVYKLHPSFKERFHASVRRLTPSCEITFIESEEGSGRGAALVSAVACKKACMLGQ

[5] = Permeability of compound at pH 7.4 by PAMPA assay; format: ADME; settings: read-out: permeability
[6] = target: T1, Hexokinase-4; assay: Displacement of fluorescent labeled derivative from recombinant human hepatic glucokinase incubated for 30 mins in presence of 12 mM glucose by fluorescent polarization assay
[7] = target: hERG (KCNH2) (Homo sapiens, UniProt Q12809); assay: Inhibition of hERG at 10 uM by patch clamp method relative to control; format: toxicity
[8] = target: T1, Hexokinase-4; assay: Activation of recombinant human full length liver glucokinase expressed in Escherichia coli incubated for 10 mins in presence of 5 mM glucose by plate reader analysis
[9] = target: T1, Hexokinase-4; assay: Activation of recombinant human full length liver glucokinase expressed in Escherichia coli incubated for 10 mins in presence of 2 mM glucose by plate reader analysis
[10] = target: T2, Hexokinase-4 (Mus musculus, UniProt P52792); assay: Activation of recombinant mouse full length liver glucokinase expressed in Escherichia coli incubated for 10 mins in presence of 12 mM glucose by plate reader analysis
T2 sequence (P52792 whole entry): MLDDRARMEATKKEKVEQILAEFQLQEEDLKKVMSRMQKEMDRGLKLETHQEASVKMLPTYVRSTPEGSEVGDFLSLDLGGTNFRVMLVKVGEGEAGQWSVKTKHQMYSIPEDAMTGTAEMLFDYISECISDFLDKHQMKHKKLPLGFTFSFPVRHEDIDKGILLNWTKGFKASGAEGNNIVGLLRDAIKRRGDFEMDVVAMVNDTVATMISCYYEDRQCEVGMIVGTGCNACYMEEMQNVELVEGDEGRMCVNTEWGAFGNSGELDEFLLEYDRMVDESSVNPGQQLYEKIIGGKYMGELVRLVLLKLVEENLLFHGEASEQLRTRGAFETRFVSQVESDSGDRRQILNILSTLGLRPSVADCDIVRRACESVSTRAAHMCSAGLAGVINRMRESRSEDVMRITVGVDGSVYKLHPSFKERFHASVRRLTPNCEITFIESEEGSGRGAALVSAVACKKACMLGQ

Chain of Voltage-gated inwardly rectifying potassium channel KCNH2 (Q12809 whole entry): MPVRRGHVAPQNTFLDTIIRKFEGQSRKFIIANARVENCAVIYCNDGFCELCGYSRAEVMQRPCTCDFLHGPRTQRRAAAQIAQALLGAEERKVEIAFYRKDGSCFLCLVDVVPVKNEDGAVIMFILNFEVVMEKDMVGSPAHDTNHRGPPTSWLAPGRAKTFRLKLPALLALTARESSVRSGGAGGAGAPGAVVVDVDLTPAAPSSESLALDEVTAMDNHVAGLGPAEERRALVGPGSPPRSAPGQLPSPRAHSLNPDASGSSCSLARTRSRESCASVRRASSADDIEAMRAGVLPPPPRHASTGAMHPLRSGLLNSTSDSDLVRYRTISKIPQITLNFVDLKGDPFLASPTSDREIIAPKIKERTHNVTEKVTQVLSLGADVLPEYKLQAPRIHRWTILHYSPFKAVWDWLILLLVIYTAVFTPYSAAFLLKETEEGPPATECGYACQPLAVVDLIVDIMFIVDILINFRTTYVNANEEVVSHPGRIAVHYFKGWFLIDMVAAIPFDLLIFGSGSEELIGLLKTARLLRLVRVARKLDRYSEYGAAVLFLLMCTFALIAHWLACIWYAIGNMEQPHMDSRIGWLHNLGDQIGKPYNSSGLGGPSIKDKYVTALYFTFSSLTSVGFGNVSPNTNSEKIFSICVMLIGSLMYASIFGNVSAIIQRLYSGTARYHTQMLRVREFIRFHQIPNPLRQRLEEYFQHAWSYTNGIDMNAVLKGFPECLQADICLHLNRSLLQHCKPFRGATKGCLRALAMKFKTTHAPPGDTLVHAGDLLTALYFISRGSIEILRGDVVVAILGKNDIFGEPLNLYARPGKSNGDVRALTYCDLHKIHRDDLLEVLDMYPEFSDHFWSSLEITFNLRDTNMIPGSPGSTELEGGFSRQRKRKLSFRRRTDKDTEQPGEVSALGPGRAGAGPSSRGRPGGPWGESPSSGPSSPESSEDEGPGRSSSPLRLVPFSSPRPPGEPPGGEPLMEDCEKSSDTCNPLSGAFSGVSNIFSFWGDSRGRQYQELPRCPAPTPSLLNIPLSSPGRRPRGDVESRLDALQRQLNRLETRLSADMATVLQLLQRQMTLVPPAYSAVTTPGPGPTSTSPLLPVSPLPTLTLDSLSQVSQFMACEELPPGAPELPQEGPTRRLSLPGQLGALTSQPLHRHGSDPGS
Chain of hERG (KCNH2) (Q12809 whole entry): as above

COC[C@H](C)Oc1cc(Oc2ccc(S(C)(=O)=O)cc2)cc(C(=O)Nc2ccn(CP(C)(C)=O)n2)c1
IC50 [1]: > 80 µM
remaining at 10 min, 0.5 µM [2]: 96%
solubility [3]: 0.096 mg/mL (≈ 179 µM)
EC50 [4]: 0.679 µM

CCOP(=O)(Cn1ccc(NC(=O)c2cc(Oc3ccc(S(C)(=O)=O)nc3)cc(OC(C)C)c2)n1)OCC
IC50 [1]: > 80 µM
remaining at 10 min, 0.5 µM [2]: 96%
Papp [5]: 471 nm/s
EC50 [4]: 0.024 µM

CCOP(=O)(Cn1ccc(NC(=O)c2cc(Oc3ccc(S(C)(=O)=O)cc3)cc(OC(C)C)c2)n1)OCC
IC50 [1]: > 80 µM
remaining at 10 min, 0.5 µM [2]: 88%
Papp [5]: 501 nm/s
solubility [3]: 0.001 mg/mL (≈ 1.77 µM)
EC50 [4]: 0.048 µM

CCO[P@](C)(=O)Cn1ccc(NC(=O)c2cc(Oc3ccc(S(C)(=O)=O)cc3)cc(O[C@@H](C)COC)c2)n1
IC50 [1]: > 80 µM
remaining at 10 min, 0.5 µM [2]: 81%
solubility [3]: 0.547 mg/mL (≈ 967 µM)
EC50 [4]: 0.169 µM

CCOP(=O)(Cn1ccc(NC(=O)c2cc(Oc3ccc(S(C)(=O)=O)cc3)cc(O[C@@H](CC)CO)c2)n1)OCC
IC50 [1]: > 80 µM
remaining at 10 min, 0.5 µM [2]: 82%
Papp [5]: 84 nm/s
EC50 [4]: 0.098 µM

CCOP(=O)(Cn1ccc(NC(=O)c2cc(Oc3cnc(S(C)(=O)=O)nc3)cc(OC(C)C)c2)n1)OCC
IC50 [1]: > 80 µM
remaining at 10 min, 0.5 µM [2]: 100%
Papp [5]: 314 nm/s
solubility [3]: 0.471 mg/mL (≈ 830 µM)
EC50 [4]: 0.234 µM

CCOP(=O)(Cn1ccc(NC(=O)c2cc(Oc3cnc(C(=O)N4CCC4)nc3)cc(OC(C)C)c2)n1)OCC
IC50 [1]: > 80 µM
remaining at 10 min, 0.5 µM [2]: 99%
solubility [3]: 0.229 mg/mL (≈ 400 µM)
EC50 [4]: 0.061 µM

CCOP(=O)(Cn1ccc(NC(=O)c2cc(Oc3ccc(S(C)(=O)=O)cc3)cc(O[C@@H](C)CF)c2)n1)OCC
IC50 [1]: > 80 µM
remaining at 10 min, 0.5 µM [2]: 78%
Papp [5]: 560 nm/s
solubility [3]: 0.001 mg/mL (≈ 1.71 µM)
EC50 [4]: 0.087 µM

CCOP(=O)(Cn1ccc(NC(=O)c2cc(Oc3ccc(S(C)(=O)=O)nn3)cc(OC(C)C)c2)n1)OCC
IC50 [1]: > 80 µM
remaining at 10 min, 0.5 µM [2]: 100%
Papp [5]: 255 nm/s
solubility [3]: 3.83 mg/mL (≈ 6750 µM)
EC50 [4]: 0.53 µM

CCOP(=O)(Cn1ccc(NC(=O)c2cc(Oc3ccc(C(=O)N4CCC4)cn3)cc(OC(C)C)c2)n1)OCC
IC50 [1]: > 80 µM
remaining at 10 min, 0.5 µM [2]: 99%
solubility [3]: 0.298 mg/mL (≈ 521 µM)
EC50 [4]: 0.188 µM

CCOP(=O)(Cn1ccc(NC(=O)c2cc(Oc3ccc(S(=O)(=O)CC)cc3)cc(OC(C)C)c2)n1)OCC
remaining at 10 min, 0.5 µM [2]: 94%
Papp [5]: 534 nm/s
EC50 [4]: 0.028 µM

CCOP(=O)(Cn1ccc(NC(=O)c2cc(Oc3cnc(C(=O)NC)cn3)cc(OC(C)C)c2)n1)OCC
IC50 [1]: > 80 µM
remaining at 10 min, 0.5 µM [2]: 98%
EC50 [4]: 0.193 µM

CCOP(=O)(Cn1ccc(NC(=O)c2cc(Oc3ccc(S(C)(=O)=O)cc3)cc(OC(CF)CF)c2)n1)OCC
IC50 [1]: 44 µM
remaining at 10 min, 0.5 µM [2]: 93%
Papp [5]: 382 nm/s
solubility [3]: 0.01 mg/mL (≈ 16.6 µM)
EC50 [4]: 0.076 µM

CCOP(=O)(Cn1ccc(NC(=O)c2cc(Oc3ccc(S(=O)(=O)C(C)C)cc3)cc(OC(C)C)c2)n1)OCC
IC50 [1]: 30 µM
remaining at 10 min, 0.5 µM [2]: 77%
Papp [5]: 536 nm/s
solubility [3]: 0.003 mg/mL (≈ 5.05 µM)
EC50 [4]: 0.032 µM

CCOP(=O)(Cn1ccc(NC(=O)c2cc(Oc3cnc(C(=O)N(C)C)cn3)cc(OC(C)C)c2)n1)OCC
IC50 [1]: > 80 µM
remaining at 10 min, 0.5 µM [2]: 99%
solubility [3]: 0.98 mg/mL (≈ 1750 µM)
EC50 [4]: 0.148 µM

CCOP(=O)(Cn1ccc(NC(=O)c2cc(Oc3ccc(S(C)(=O)=O)cc3)cc(O[C@@H](C)CO)c2)n1)OCC
IC50 [1]: > 80 µM
remaining at 10 min, 0.5 µM [2]: 90%
Papp [5]: 7 nm/s
solubility [3]: 0.007 mg/mL (≈ 12 µM)
EC50 [4]: 0.079 µM

CCOP(=O)(Cn1ccc(NC(=O)c2cc(Oc3cnc(S(C)(=O)=O)cn3)cc(OC(C)C)c2)n1)OCC
IC50 [1]: > 80 µM
remaining at 10 min, 0.5 µM [2]: 91%
Papp [5]: 445 nm/s
EC50 [4]: 0.159 µM

CCOP(=O)(Cc1csc(NC(=O)c2cc(Oc3ccc(S(C)(=O)=O)cc3)cc(O[C@@H](C)COC)c2)n1)OCC
IC50 [1]: 50 µM
remaining at 10 min, 0.5 µM [2]: 4%
IC50 [6]: 0.122 µM
inhibition at 10 µM [7]: 60%
solubility [3]: 0.016 mg/mL (≈ 26.1 µM)
EC50 [8]: 0.064 µM
EC50 [9]: 0.185 µM
EC50 [4]: 0.038 µM
EC50 [10]: 0.042 µM

CCOP(=O)(Cn1ccc(NC(=O)c2cc(Oc3cnc(C(N)=O)cn3)cc(OC(C)C)c2)n1)OCC
IC50 [1]: > 80 µM
remaining at 10 min, 0.5 µM [2]: 100%
EC50 [4]: 0.656 µM

CCOP(=O)(Cn1ccc(NC(=O)c2cc(Oc3ccc(S(=O)(=O)N4CCC4)cc3)cc(OC(C)C)c2)n1)OCC
IC50 [1]: 33 µM
remaining at 10 min, 0.5 µM [2]: 46%
Papp [5]: 516 nm/s
solubility [3]: 0.002 mg/mL (≈ 3.3 µM)
EC50 [4]: 0.067 µM

CCOP(=O)(Cn1ccc(NC(=O)c2cc(Oc3ccc(C(=O)N4CCC4)nn3)cc(OC(C)C)c2)n1)OCC
IC50 [1]: > 80 µM
remaining at 10 min, 0.5 µM [2]: 99%
solubility [3]: 0.409 mg/mL (≈ 714 µM)
EC50 [4]: 1.24 µM

CCOP(=O)(Cn1ncc(NC(=O)c2cc(Oc3ccc(S(C)(=O)=O)cc3)cc(O[C@@H](C)COC)c2)n1)OCC
remaining at 10 min, 0.5 µM [2]: 33%
solubility [3]: 0.005 mg/mL (≈ 8.38 µM)
EC50 [4]: 0.049 µM

CCOP(=O)(Cn1ccc(NC(=O)c2cc(Oc3ccc(S(C)(=O)=O)cc3)cc(O[C@@H](C)COC)c2)n1)OCC
IC50 [1]: > 80 µM
remaining at 10 min, 0.5 µM [2]: 11%
solubility [3]: 0.24 mg/mL (≈ 403 µM)
EC50 [4]: 0.075 µM

CCOP(=O)(Cc1cnc(NC(=O)c2cc(Oc3ccc(S(C)(=O)=O)cc3)cc(O[C@@H](C)COC)c2)cn1)OCC
IC50 [1]: > 80 µM
remaining at 10 min, 0.5 µM [2]: 54%
solubility [3]: 0.161 mg/mL (≈ 265 µM)
EC50 [4]: 0.164 µM

CCOP(=O)(Cn1ccc(NC(=O)c2cc(Oc3ccc(C(=O)N4CCC4)nc3)cc(OC(C)C)c2)n1)OCC
IC50 [1]: > 80 µM
remaining at 10 min, 0.5 µM [2]: 66%
solubility [3]: 0.039 mg/mL (≈ 68.2 µM)
EC50 [4]: 0.025 µM
